# Experiment: Umami effect of pure amide in pure water, panel versus MSG
# Format: in vivo
# Conditions: amide at 20ppm in mineral water vs 0.05% MSG; RUI=(umami intensity of the amide)/(umami intensity of MSG)*10; average of 5-10 trained panelists
# Procedure: The amides were evaluated at 20ppm in mineral water in comparison with 0.05% monosodium glutamate (MSG). […] The Relative umami intensity (RUI) was calculated as follows: […] The following table gives the average of the notes obtained from all panelists.
row,SMILES,Relative umami intensity (RUI)
1,"COc1cccc(CCNC(=O)/C=C/c2ccc(OC)c(OC)c2)c1 [Amide 4, (E)-3-(3,4-dimethoxyphenyl)-N-(3-methoxyphenethyl)acrylamide]",10.2
2,COc1ccc(/C=C/C(=O)NCCc2ccc(OC)c(OC)c2)cc1 [Amide 14],3.8
3,COc1ccccc1CCNC(=O)/C=C/c1ccc(OC)c(OC)c1 [Amide 5],3.2
4,COc1cc(CCNC(=O)/C=C/c2ccc(OC)c(OC)c2)cc(OC)c1 [Amide 6],3.7
5,"CCOc1cccc(CCNC(=O)/C=C/c2ccc(OC)c(OC)c2)c1 [Amide 7, (E)-3-(3,4-dimethoxyphenyl)-N-(3-ethoxyphenethyl)acrylamide]",9.8
6,"COc1ccc(/C=C/C(=O)NCCc2ccc(C)c(C)c2)cc1OC [Amide 11, (E)-3-(3,4-dimethoxyphenyl)-N-(3,4-dimethylphenethyl)acrylamide]",13.3
7,COc1ccc(/C=C/C(=O)NCCc2ccccc2)cc1OC [Amide 2],3.8
8,"COc1ccc(/C=C/C(=O)NCCc2cccc(C)c2)cc1OC [Amide 17, (E)-3-(3,4-dimethoxyphenyl)-N-(3-methylphenethyl)acrylamide]",12.1
9,"COc1ccc(CCNC(=O)/C=C/c2ccc(OC)c(OC)c2)cc1 [Amide 1, (E)-3-(3,4-dimethoxyphenyl)-N-(4-methoxyphenethyl)acrylamide]",5.6
10,"COc1ccc(/C=C/C(=O)NCCc2ccc(OC(C)C)cc2)cc1OC [Amide 9, (E)-3-(3,4-dimethoxyphenyl)-N-(4-isopropoxy-phenethyl)acrylamide]",6.5
11,"COc1ccc(/C=C/C(=O)NCCc2ccc(C(C)C)cc2)cc1OC [Amide 12, (E)-3-(3,4-dimethoxyphenyl)-N-(4-isopropylphenethyl)acrylamide]",5.9
12,"CCCOc1cccc(CCNC(=O)/C=C/c2ccc(OC)c(OC)c2)c1 [Amide 8, (E)-3-(3,4-dimethoxyphenyl)-N-(3-propoxyphenethyl)acrylamide]",9.9
13,COc1ccc(/C=C/C(=O)NCCc2ccc(OC)c(OC)c2)cc1OC [Amide 3],3.3
14,"CCc1ccc(CCNC(=O)/C=C/c2ccc(OC)c(OC)c2)cc1 [Amide 10, (E)-3-(3,4-dimethoxyphenyl)-N-(4-ethylphenethyl)acrylamide]",11.5

# — patent US20220264923A1, “Taste Modifying Product” (Firmenich SA, priority 2011, published 2022)
